# Assay results published in patent US20210338654A1 (priority 2019, published 2021).
# Where “and” joins values, the source holds several entries; their conditions need not be identical. Equal entries are not always repeated.
# B1: erenumab (antibody, chains of the INN, looked up, V domains shown)
# VH: QVQLVESGGGVVQPGRSLRLSCAASGFTFSSFGMHWVRQAPGKGLEWVAVISFDGSIKYSVDSVKGRFTISRDNSKNTLFLQMNSLRAEDTAVYYCARDRLNYYDSSGYYHYKYYGMAVWGQGTTVTVSS
# VL: QSVLTQPPSVSAAPGQKVTISCSGSSSNIGNNYVSWYQQLPGTAPKLLIYDNNKRPSGIPDRFSGSKSGTSTTLGITGLQTGDEADYYCGTWDSRLSAVVFGGGTKLTVL
# Assays:
# patients with migraine = details: in vivo
# [1] = tested on: breakthrough migraine in patient treated with fremanezumab; details: human, in vivo
# [2] = tested on: breakthrough migraine in patients treated with erenumab-aooe; details: human, in vivo
# [3] = tested on: breakthrough migraine in patients treated with botulinum toxin (Botox); details: human, in vivo
# [4] = tested on: migraine attack of moderate or severe intensity in adults; format: in vivo, human
molecule,measurement,setting,value
"N[C@@H]1c2cccnc2[C@H](OC(=O)N2CCC(n3c(=O)[nH]c4ncccc43)CC2)CC[C@H]1c1cccc(F)c1F [Rimegepant, [(5S,6S,9R)-5-amino-6-(2,3-difluorophenyl)-6,7,8,9-tetrahydro-5H-cyclohepta[b]pyridin-9-yl] 4-(2-oxo-3H-imidazo[4,5-b]pyridin-1-yl)piperidine-1-carboxylate]",incidence of serum ALT or AST >3×ULN,patients with migraine; human,1.0%
same,Hy's Law cases,patients with migraine,no Hy's Law cases identified
same,liver cases assessed as probably related to study drug,patients with migraine,no liver cases assessed as probably related to study drug
same,liver safety signal,patients with migraine,no liver safety signal detected to date
same,mean reduction in headaches/month,patients with migraine,4 days
same,patients with at least 30% reduction in monthly number of headache days,patients with migraine,Approximately 40%
same,migraine breakthroughs successfully treated,[1],three migraine breakthroughs that were successfully treated
same,Preference of Medication response,[2],"Much better, I prefer this medication."
same,Satisfaction with Medication (SM) response,[2],Very satisfied.
same,"acute treatment of breakthrough migraine, outcome",[2],effective
same,adverse events,[2],no adverse events
same,adverse events related to treatment,[2],no adverse events related to treatment
same,"adverse events while receiving rimegepant alone (streptococcal pharyngitis, considered unrelated)",[2],1
same,rating versus previous treatments,[2],much better
same,relief from breakthrough migraine headache,[2],obtained relief from the migraine headache without the need to take other medications
same,satisfaction with rimegepant at end-of-study visit,[2],very satisfied
same,adverse effects from treatment,[3],did not report any adverse effects
same,need for rescue medication,[3],did not require any rescue medications or additional doses of rimegepant
same,number of headache days (parent report),[3],noticeable reduction in the number of headache days
same,relief from breakthrough migraine headache,[3],obtained relief from the migraine headache without the need to take other medications
same,resolution of Botox induced headache,[3],completely resolved within an hour
same,time to full resolution of headache,[3],≤ 1 h
same,time to pain relief,[3],within a half an hour
same,"N. Censored (no pain score of none by 495 minutes postdose, censored at 496 minutes)",[4]; N = 537,139
same,"Freedom from most bothersome symptom at two hours postdose, Common Risk",[4]; in vivo,41.2%
same,"Freedom from most bothersome symptom at two hours postdose, Free from MBS n/N",[4]; in vivo,31/89 and 171/448 and 202/537
same,"Freedom from most bothersome symptom at two hours postdose, Stratum Risk",[4]; in vivo,40.3% and 41.4%
same,"Pain freedom at two hours postdose, Common Risk",[4]; in vivo,20.2%
same,"Pain freedom at two hours postdose, No Pain n/N",[4]; in vivo,14/89 and 91/448 and 105/537
same,"Pain freedom at two hours postdose, Risk Difference Rimegepant vs Placebo",[4]; in vivo,7.82 and 7.36 and 7.91
same,"Pain freedom at two hours postdose, Stratum Risk",[4]; in vivo,16.7% and 20.9%
"CN(C)CCc1c[nH]c2ccc(C[C@H]3COC(=O)N3)cc12 [Zomig®, reference compound]",effect on migraines (patient history),[3],would decrease in intensity but they would not attain freedom from pain within 24 hrs
B1,decline in monthly migraine days (MMDs),[2],46%
same,monthly migraine days of any pain intensity after starting erenumab,[2],7 MMDs
